Laboratory results: patent US8632452B2, “Peroxisome proliferator-activator receptor δ (PPARδ) and the development of preimplantation embryos” (Board of Regents of the University of Texas System, priority 2005, dated 2014)

What was measured:
[1] = system: preimplantation mouse embryos (wild type, PPARδ+/+); assay: Complete hatching of cultured wild type mouse embryos; type: cell-based; conditions: for rate of complete hatching versus control, ligand added at two-cell, eight-cell or morula stage: exposure 0-96, 24-96 and 48-96 hrs; for rate of complete hatching versus control, ligand added at two-cell, eight-cell or morula stage / rate of complete hatching versus control, ligand added at blastocyst stage: read at 96 hrs; for rate of complete hatching versus control, ligand added at blastocyst stage: exposure 72-96 hrs; for proportion of completely hatched embryos: 0.1 μM each ligand from two-cell stage, untreated 30%
Excerpt: (§1) Harvest and culture of mouse embryos. Mice were obtained from the following sources: C3H, 129S1/SvImJ and C57BL6/J, the Jackson laboratory (Bar Harbor, Me., USA); ICR and C57BL6/Nhd, Harlan (Indianapolis, Ind., USA); PPARδ−/−, a gift from Dr. R. Evans (the Salk Institute, La Jolla, Calif.). The wild type (WT) counter parts of PPARδ−/− were bred by mating 129S1/SvImJ and the offspring of C57BL6/J×129S1/SvImJ. Mice were kept in temperature and humidity controlled environment (07:00 light on, 19:00 light off) with free access to food and water. The mouse embryos were harvested and cultured as described previously (Huang et al., 2003). Briefly, three-week old female mice were super-ovulated with intra-peritoneal injection of PMSG (5 IU) followed by hCG (5 IU) 42-46 hrs later. After hCG injection (at 15:00), each female mouse was caged with one male mouse with proven fertility. Unless specified otherwise, embryos (at two-cell stage) were harvested 44-48 hrs later and cultured (17-20 per group) at 37° C. under 5% CO2 in 4-well plates (Nalge Nunc International, Naperville, Ill., USA) containing 600 ul protein-free media. The HTF media (Sage Biopharma, Bedminster, N.J., USA) was used during the first 48 hrs; the αMEM (Irvine Scientific), with Earle's Salts and 2 mM glutamine, was used during the second 48 hrs. After 96 hrs of culture, each embryo was examined for the presence of zona pellucida. Those completely free of the zona pellucida were counted as having completely hatched. The rate of complete hatching was calculated by dividing the number of completely hatched embryos by the number of total embryos. Complete embryo hatching was used as an end point because it is a clear cut endpoint and correlates with the likelihood of implantation and viable pregnancy (Huang et al., 2003; Huang et al., 2004b). The concentration of the vehicle (DMSO) was less than 1:10,000; control embryos received the same concentration of DMSO. Prism® Version 3.0 (GraphPad Software Inc. San Diego, Calif.), with the Hill slope set at 1.0, was used to estimate the ED50 of L-165041. Chi-square and Student's t-tests were used where appropriate (InStat® Version 3.05, GraphPad Software Inc.). A p<0.05 was considered statistically significant.

[2] = system: PPARδ+/+ embryos transferred to gestational carriers (ICR female mice); assay: Embryo transfer to gestational carriers and determination of implantation rate; type: in vivo, mouse; conditions: wild type two-cell embryos treated 48 h, gestation sacs counted 72 h after transfer; control 41%, p<0.05
Procedure: Embryo transfer was performed as described previously (Huang et al., 2004b). Briefly, embryos were transferred to gestational carriers (ICR female mice) on day 2.5 of pseudopregnancy under a dissecting microscope (Olympus SZ-PT, Shinjuku-ku, Tokyo, Japan). After anesthesia, each uterine horn was accessed via a 1.5 cm flank incision. With the proximal oviduct held by a pair of forceps, an opening was created at the distal end of the uterine horn on the anti-mesenteric side with a 30 gauge needle. […] Up to seven embryos in 1.5 μl transfer medium (MEM with 25 mM HEPES and 1% BSA) were transferred to each horn. After each transfer, the contents of the pipette were examined under a stereomicroscope to identify retained embryos. To avoid the mixing of embryos as a result of embryo crossover (Dr. Andreas Zimmer, University of Bonn, Germany, MG118 List, the Jackson Laboratory), each gestational carrier received only one kind of embryo. […] Seventy-two h after embryo transfer, the rates of implantation were determined based on a previously-described method with modifications (Paria et al., 1993). […] After the carrier was sacrificed, the uterine horns were opened and the gestation sacs counted. The implantation rate was expressed as percentages of gestation sacs over total embryos transferred. […]

PPARδ+/+ embryos = assay: Developmental stage (blastocyst formation) of cultured embryos at time of transfer; type: cell-based, mouse; conditions: wild type two-cell embryos treated 48 h
Excerpt: Harvest and culture of mouse embryos. Mice were obtained from the following sources: C3H, 129S1/SvImJ and C57BL6/J, the Jackson laboratory (Bar Harbor, Me., USA); ICR and C57BL6/Nhd, Harlan (Indianapolis, Ind., USA); PPARδ−/−, a gift from Dr. R. Evans (the Salk Institute, La Jolla, Calif.). The wild type (WT) counter parts of PPARδ−/− were bred by mating 129S1/SvImJ and the offspring of C57BL6/J×129S1/SvImJ. Mice were kept in temperature and humidity controlled environment (07:00 light on, 19:00 light off) with free access to food and water. The mouse embryos were harvested and cultured as described previously (Huang et al., 2003). […] Those completely free of the zona pellucida were counted as having completely hatched. The rate of complete hatching was calculated by dividing the number of completely hatched embryos by the number of total embryos. […]
Embryo transfer was performed as described previously (Huang et al., 2004b). […] Seventy-two h after embryo transfer, the rates of implantation were determined based on a previously-described method with modifications (Paria et al., 1993). […] After the carrier was sacrificed, the uterine horns were opened and the gestation sacs counted. The implantation rate was expressed as percentages of gestation sacs over total embryos transferred. […]

[3] = system: preimplantation mouse embryos (C3B6F1); assay: TUNEL assay, dead cell index in cultured embryos; type: cell-based; conditions: 0.1 μM, 72 hrs of culture
Procedure: Terminal deoxynucleotidyl transferase mediated dUTP Nick End Labeling (TUNEL) and dead cell index. The embryonic cells that undergo programmed cell death were identified by TUNEL assay using a commercial kit (In Situ Cell Death Detection Kit, Roche Applied Science) with some modifications. At each time point indicated, embryos were collected after culture or harvested from mice and fixed in 4° C. PBS containing 4% buffered paraformaldehyde for 30 min. Prior to TUNEL, the embryos were incubated at 37° C. with 5% triton in PBS for 20 mins. The manufacturer's protocol was modified. Up to 20 blastocysts were incubated at 37° C. in 20 uL of TUNEL reaction solution (2 uL of TUNEL enzyme and 18 uL of 1:4 diluted labeling solution) in a humidified chamber for 60 mins. The embryos were then incubated in DAPI (30 ug/mL) for 5 mins at 37° C. before mounted in 16.6% Elvanol® 50-42 (Dupont, Wilmington, Del., USA) in 0.1 M Tris HCl pH 8.5. The apoptotic cells and the total cells were visualized using a fluorescence microscope (AxioPlan 2, Carl Zeiss, Germany) with FITC and UV filters, respectively. DNAse-treated embryos were used as positive controls. The dead cell index (percent of cells that were TUNEL positive) was determined by dividing the number of TUNEL-positive cells by the number of total cells then multiplies by 100%.

PPARδ−/− embryos = assay: Complete hatching of cultured PPARδ−/− mouse embryos; type: cell-based; conditions: 96 h; for effect on hatching of PPARδ−/− embryos: 0.1 μM from two-cell stage
Excerpt: as §1, with “DMSO.” for “DMSO. Prism® Version 3.0 (GraphPad Software Inc. San Diego, Calif.), with the Hill slope set at 1.0, was used to estimate the ED50 of L-165041. Chi-square and Student's t-tests were used where appropriate (InStat® Version 3.05, GraphPad Software Inc.). A p<0.05 was considered statistically significant.”

[4] = system: preimplantation mouse embryos; assay: BrdU uptake, proliferation index and cell number in cultured embryos; type: cell-based
Procedure: 5-Bromo-2′-deoxy-uridine (BrdU) uptake and the proliferation index. The proliferation of embryonic cells was determined based on their abilities to incorporate BrdU. The assay was performed using a commercial kit (BrdU Labeling and Detection Kit I, Roche Applied Science, Indianapolis, Ind.) according to manufacturer's protocols with some optimizations. One of the changes was the duration of incubation. […] For the comparison between control and L165,041 treated embryos, the optimal time was 6 minutes. The modified procedure is as follows. Immediately after harvest, the embryos were incubated in 100 μl pre-equilibrated HTF medium containing 10 μM BrdU for […] at 37° C. under 5% CO2. Following the incubation, the embryos were fixed in ice-cold glycine (50 mM) in 70% ethanol (pH2.0) at −20° C. for 30 mins. Following rehydration/blocking in phosphate buffered saline (PBS) containing 1% BSA, the embryos were incubated with diluted anti-BrdU mouse monoclonal antibody (1:2) in the incubation buffer containing 1% BSA and followed by another incubation with a diluted FITC-conjugated […] IgG antibody (1:4) in PBS containing 1% BSA. Both incubations were at 37° C. and lasted for 30 mins; the embryos were washed in 200 μl PBS containing 1% BSA after each incubation. After a final incubation in DAPI (5 μg /ml) for 90 mins at 25° C., the embryos were mounted in 0.1 M Tris HCl (pH 8.5) containing 16.6% Elvanol® 50-42 (DuPont Wilmington, Del., USA) and 2.5% 1,4-diazabicyclo-(2.2.2)-octane. Cells that were in S-phase and, therefore, incorporated BrdU were identified under a FITC filter. Total cell number was determined based on DAPI nuclear staining under a UV filter (AxioPlan 2, Carl Zeiss, Germany). The proliferation index (percent of cells in S-phase) was determined by dividing the number of BrdU-positive cells by the number of total cells then multiplies by 100%.
The proliferation of embryonic cells was determined based on their abilities to incorporate BrdU. […] Total cell number was determined based on Hoechst 33258 nuclear staining under a UV filter.

[5] = system: mouse embryos transferred to gestational carriers; conditions: treated embryos transferred to gestational carriers; cited from earlier work

CCCc1c(OCCCOc2ccc(OCC(=O)O)cc2)ccc(C(C)=O)c1O [L165,041, 4-[3-(4-Acetyl-3-hydroxy-2-propylphenoxy)propoxy]phenoxy-acetic acid]
complete embryo hatching versus control ([1]; 1 μM ligand, two-cell embryos (C3B6F1), 96 hrs): enhanced complete embryo hatching | relative risk of complete hatching versus control group ([1]; 1 μM, 96 hrs, 95% confidence interval 1.08-3.36): 1.9 | rate of complete hatching versus control, ligand added at two-cell, eight-cell or morula stage ([1]; 1 μM): significantly higher rates of complete hatching | rate of complete hatching versus control, ligand added at two-cell, eight-cell or morula stage ([1]; 1 μM, listed as L-165041): effective in stimulating embryo hatching | rate of complete hatching versus control, ligand added at blastocyst stage ([1]; 1 μM): the difference was not statistically significant | rate of complete hatching versus control, ligand added at blastocyst stage ([1]; 1 μM, listed as L-165041): no longer effective in stimulating hatching | EC50 ([1]; Mus musculus, two-cell embryos cultured 96 hrs in different concentrations, estimated, Hill slope 1.0, read-out: ED50 of enhancement of complete embryo hatching): 21 nM | proportion of completely hatched embryos ([1]; wild type embryos, 96 h): 54% | implantation rate (gestation sacs over embryos transferred) [2]: 64% | blastocyst formation versus control (PPARδ+/+ embryos): did not significantly enhance blastocyst formation | dead (apoptotic, TUNEL positive) cells versus control [3]: less dead cells | effect on hatching of PPARδ−/− embryos (PPARδ−/− embryos): Neither iloprost nor L-165041 affected the hatching of PPARδ−/− embryos | cells in the S-phase (BrdU incorporation) versus control ([4]; 0.1 μM, 72 hrs of culture, BrdU 6 minutes): more cells in the S-phase | average number of cells per embryo ([4]; 0.1 μM, 72 hrs of culture, same in control group): 63 | percentages of BrdU-positive cells over the untreated control ([4]; 10 μM BrdU, wild type embryos): increased the percentages of BrdU-positive cells

CC#CCC(C)[C@H](O)/C=C/[C@@H]1[C@H]2C/C(=C/CCCC(=O)O)C[C@H]2C[C@H]1O (some centres unmarked) [iloprost]
proportion of completely hatched embryos ([1]; wild type embryos, 96 h): 50% | completely hatched embryos versus total embryos ([1]; wild type embryos, 0.1 μM, 96 h): 37/74 | more live births over control embryos [5]: 28% | effect on hatching of PPARδ−/− embryos (PPARδ−/− embryos): had no effect | completely hatched embryos versus total embryos (PPARδ−/− embryos; PPARδ−/− embryos, 0.1 μM, untreated 4/144): 3/144
